Source: patent US7211587B2, “Quinoline derivatives and quinazoline derivatives having azolyl group” (Kirin Beer Kabushiki Kaisha, priority 2001, dated 2007)

How the values were obtained:
[1] = test system: Human colon carcinoma cells (LS174T); assay: Antitumor activity against human colon carcinoma cells (LS174T) using nude mice; type: in vivo; details: LS174T (printed LS17) in nude mice, oral 5 mg/kg once a day for 9 days
Protocol: (§1) Human colon carcinoma cells (LS174T) (obtained from American Type Culture Collection) or human pulmonary carcinoma cells (A549) (obtained from RIKEN Cell Bank) were transplanted into nude mice. When the tumor volume became about 150 mm^3, the mice were grouped so that each group consisted of four mice and the average tumor volume was even among the groups. A test compound was orally administered at doses of 5 and 20 mg/kg to the test groups every day once a day for 9 days, while only a vehicle was administered to a control group in the manner as in the test groups. The tumor growth inhibition rate (TGIR) was calculated as follows: The tumor growth inhibition rate (TGIR)=(1−TX/CX)×100 wherein CX represents the volume of tumor at day X for the control group when the tumor volume at the first day of the administration was presumed to be 1; and TX represents the tumor volume for test compound administration groups.

[2] = test system: Human pulmonary carcinoma cells (LC-6); assay: Antitumor activity against human pulmonary carcinoma cells (LC-6) using nude rats; type: in vivo; details: LC-6 in nude rats
Protocol: (§2) Human pulmonary carcinoma cells (LC-6) (obtained from Central Laboratories for Experimental Animals) were transplanted into nude rats. When the tumor volume became about 700 mm^3, the rats were grouped so that each group consisted of four rats and the average tumor volume was even among the groups. A test compound was orally administered at doses of 0.2, 0.5, 1.0, and 5.0 mg/kg to the test groups every day once a day for 14 days, while only a vehicle was administered to a control group in the manner as in the test groups. The tumor growth inhibition rate (TGIR) was calculated as follows: The tumor growth inhibition rate (TGIR)=(1−TX/CX)×100 wherein CX represents the volume of tumor at day X for the control group when the tumor volume at the first day of the administration was presumed to be 1; and TX represents the tumor volume for test compound administration groups.

[3] = test system: Human pulmonary carcinoma cells (LC-6); assay: Antitumor activity against human pulmonary carcinoma cells (LC-6) transplanted into nude mice; type: in vivo; details: Mus musculus, 216 h; LC-6 in nude mice, oral 20 mg/kg once a day for 9 days; read-out: TGIR (tumor growth inhibition rate)
Protocol: as §2, with “mice.” for “rats.”, “100” for “700”, “mice” for “rats”, “a dose” for “doses”, “20” for “0.2, 0.5, 1.0, and 5.0”, “9” for “14”

[4] = test system: human pulmonary carcinoma cells (A549); assay: Antitumor activity against human pulmonary carcinoma cells (A549) using nude mice; type: in vivo; details: A549 in nude mice, oral 20 mg/kg once a day for 9 days
Protocol: as §1

[5] = biological target: T1, human KDR (Homo sapiens, UniProt P35968); assay: Inhibitory activity against KDR phosphorylation by ELISA (VEGF-stimulated NIH 3T3 cells expressing human KDR); type: cell-based; details: VEGF 100 ng/ml, compound 1 hr, read-out: IC50 (inhibition of KDR phosphorylation)
T1 construct: expressed in transfected cells; host or cells: NIH 3T3 cells (mouse fibroblasts) stably expressing human KDR
Protocol: The harvested cells were inoculated into wells of a collagen-type one-coat 96-well flat-bottom plate, each containing the same medium, in an amount of 1.5×10^4 per well, followed by cultivation at 37° C. overnight. The medium was then replaced by a DMEM medium containing 0.1% fetal calf serum. A solution of a test compound in dimethyl sulfoxide was added to each well, and the cultivation was continued at 37° C. for additional one hr. A human recombinant vascular endothelial growth factor (hereinafter abbreviated to “VEGF”) was added to a final concentration of 100 ng/ml, and the stimulation of cells was carried out at 37° C. for 2 min. The medium was removed, the cells were washed with phosphate buffered saline (pH 7.4), and 50 μl of a solubilization buffer (20 mM HEPES (pH 7.4), 150 mM NaCl, 0.2% Triton X-100, 10% glycerol, 5 mM sodium orthovanadylate, 5 mM disodium ethylenediaminetetraacetate, and 2 mM Na4P2O7) was then added thereto. The mixture was shaken at 4° C. for 2 hr to prepare a cell extract.
Separately, phosphate buffered saline (50 μl, pH 7.4) containing 5 μg/ml of an anti-phospho-tyrosine antibody (PY20; purchased from Transduction Laboratories) was added to a microplate for ELISA (Maxisorp; purchased from NUNC), followed by standing at 4° C. overnight to form a solid phase on the wells. After washing of the plate, 300 μl of a blocking solution was added, followed by standing at room temperature for 2 hr to perform blocking. After washing, the whole quantity of the cell extract was transferred to the wells, and the plate was then allowed to stand at 4° C. overnight. After washing, an anti-KDR antibody (purchased from Santa Cruz) was allowed to react at room temperature for one hr, and, after washing, a peroxidase-labeled anti-rabbit Ig antibody (purchased from Amersham) was allowed to react at room temperature for one hr. After washing, a chromophoric substrate for peroxidase (purchased from Sumitomo Bakelite Co., Ltd.) was added thereto to initiate a reaction. After a suitable level of color development, a reaction termination solution was added to stop the reaction, and the absorbance at 450 nm was measured with a microplate reader. The KDR phosphorylation activity for each well was determined by presuming the absorbance with the addition of VEGF and without the addition of the medicament to be 100% KDR phosphorylation activity and the absorbance without the addition of the medicament and VEGF to be 0% KDR phosphorylation activity.

[6] = oral 5 mg/kg once a day for 14 days

T1 sequence (P35968 20-1356): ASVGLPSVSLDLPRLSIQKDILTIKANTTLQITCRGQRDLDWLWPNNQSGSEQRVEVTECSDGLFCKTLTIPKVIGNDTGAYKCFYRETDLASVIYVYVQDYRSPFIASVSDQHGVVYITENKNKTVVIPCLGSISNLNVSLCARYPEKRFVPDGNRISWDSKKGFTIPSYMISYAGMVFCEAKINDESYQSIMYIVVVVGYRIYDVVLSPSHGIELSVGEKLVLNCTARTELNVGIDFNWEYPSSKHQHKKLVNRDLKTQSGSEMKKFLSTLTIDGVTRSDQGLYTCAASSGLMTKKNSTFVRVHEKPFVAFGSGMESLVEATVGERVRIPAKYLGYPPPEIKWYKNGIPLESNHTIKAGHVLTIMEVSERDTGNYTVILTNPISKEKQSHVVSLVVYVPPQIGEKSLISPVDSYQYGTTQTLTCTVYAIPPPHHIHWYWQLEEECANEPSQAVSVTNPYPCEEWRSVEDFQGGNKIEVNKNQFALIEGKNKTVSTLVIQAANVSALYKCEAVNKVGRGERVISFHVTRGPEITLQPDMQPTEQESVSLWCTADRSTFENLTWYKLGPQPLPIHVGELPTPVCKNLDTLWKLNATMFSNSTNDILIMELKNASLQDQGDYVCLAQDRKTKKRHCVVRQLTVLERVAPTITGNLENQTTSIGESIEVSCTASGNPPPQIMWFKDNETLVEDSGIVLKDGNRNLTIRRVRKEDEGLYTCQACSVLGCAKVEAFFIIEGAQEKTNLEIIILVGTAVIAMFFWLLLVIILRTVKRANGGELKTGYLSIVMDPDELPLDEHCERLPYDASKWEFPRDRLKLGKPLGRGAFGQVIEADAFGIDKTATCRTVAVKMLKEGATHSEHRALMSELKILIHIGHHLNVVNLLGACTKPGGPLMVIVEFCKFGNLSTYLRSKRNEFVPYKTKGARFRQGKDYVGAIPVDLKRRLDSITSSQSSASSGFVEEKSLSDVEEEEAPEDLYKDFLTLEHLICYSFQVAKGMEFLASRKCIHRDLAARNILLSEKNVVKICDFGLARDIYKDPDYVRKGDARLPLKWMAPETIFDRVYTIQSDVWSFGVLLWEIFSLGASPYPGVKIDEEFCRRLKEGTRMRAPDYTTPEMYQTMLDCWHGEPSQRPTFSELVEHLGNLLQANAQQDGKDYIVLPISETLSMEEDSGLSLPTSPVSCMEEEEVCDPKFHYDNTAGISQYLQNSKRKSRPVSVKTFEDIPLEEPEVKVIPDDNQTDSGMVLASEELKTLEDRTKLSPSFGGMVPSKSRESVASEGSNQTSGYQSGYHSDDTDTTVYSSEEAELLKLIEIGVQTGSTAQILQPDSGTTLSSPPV

| Compound | inhibition in vivo at 20 mg/kg [3] | TGIR (tumor growth inhibition rate) [2, 6] | IC50 [5] | other results |
| --- | --- | --- | --- | --- |
| COc1cc2nccc(Oc3ccc(NC(=O)Nc4cc(C)on4)c(Cl)c3)c2cc1OC [Ex. 4, N-{2-Chloro-4-[(6,7-dimethoxy-4-quinolyl)oxy]phenyl}-N′-(5-methyl-3-isoxazolyl)urea] | 55.4% |  |  | TGIR (tumor growth inhibition rate) [1]: 65%; TGIR (tumor growth inhibition rate) ([2]; oral 0.2 mg/kg once a day for 14 days): 62%; TGIR (tumor growth inhibition rate) ([2]; oral 0.5 mg/kg once a day for 14 days): 80%; TGIR (tumor growth inhibition rate) ([2]; oral 1 mg/kg once a day for 14 days): 88%; TGIR (tumor growth inhibition rate) [4]: 65% |
| COc1cc2nccc(Oc3ccc(NC(=O)Nc4nccs4)c(F)c3)c2cc1OC.Cl [Ex. 27, N-{4-[(6,7-Dimethoxy-4-quinolyl)oxy]-2-fluorophenyl}-N′-(1,3-thiazol-2-yl)urea hydrochloride] |  | 82% | 0.3 nM |  |
| COc1cc2nccc(Oc3ccc(NC(=O)Nc4nc(C)cs4)c(F)c3)c2cc1OC.Cl [Ex. 28, N-{4-[(6,7-Dimethoxy-4-quinolyl)oxy]-2-fluorophenyl}-N′-(4-methyl-1,3-thiazol-2-yl)urea hydrochloride] | 66.3% | 59% | 0.3 nM |  |
| COc1cc2ncnc(Oc3ccc(NC(=O)Nc4nccs4)c(Cl)c3)c2cc1OC [Ex. 38, N-{2-Chloro-4-[(6,7-dimethoxy-4-quinazolinyl)oxy]phenyl}-N′-(1,3-thiazol-2-yl)urea] | 92% | 78% | < 1 nM |  |
| COc1cc2nccc(Oc3ccc(NC(=O)Nc4nnc(C(F)(F)F)s4)cc3)c2cc1OC [Ex. 50, N-{4-[(6,7-Dimethoxy-4-quinolyl)oxy]phenyl}-N′-[5-(trifluoromethyl)-1,3,4-thiadiazol-2-yl]urea] | 11.9% |  | 6.3 nM |  |
| COc1cc2nccc(Oc3ccc(NC(=O)Nc4nnc(C(F)(F)F)s4)c(F)c3)c2cc1OC [Ex. 51, N-{4-[(6,7-Dimethoxy-4-quinolyl)oxy]-2-fluorophenyl}-N′-[5-(trifluoromethyl)-1,3,4-thiadiazol-2-yl]urea] | 45.6% |  | 3.7 nM |  |
| COc1cc2nccc(Oc3ccc(NC(=O)Nc4nnc(C(F)(F)F)s4)cc3F)c2cc1OC [Ex. 52, N-{4-[(6,7-Dimethoxy-4-quinolyl)oxy]-3-fluorophenyl}-N′-[5-(trifluoromethyl)-1,3,4-thiadiazol-2-yl]urea] | 20.7% |  | 13 nM |  |
| COc1cc2nccc(Oc3ccc(NC(=O)Nc4nnc(C(F)(F)F)s4)c(C)c3C)c2cc1OC [Ex. 53, N-{4-[(6,7-Dimethoxy-4-quinolyl)oxy]-2,3-dimethylphenyl}-N′-[5-(trifluoromethyl)-1,3,4-thiadiazol-2-yl]urea] | 14.4% |  | 1.2 nM |  |
| COc1cc2nccc(Oc3ccc(NC(=O)Nc4nnc(C)s4)c(F)c3)c2cc1OC [Ex. 58, N-{4-[(6,7-Dimethoxy-4-quinolyl)oxy]-2-fluorophenyl}-N′-(5-methyl-1,3,4-thiadiazol-2-yl)urea] | 13.4% |  | 36 nM |  |
| COc1cc2nccc(Oc3cc(C)c(NC(=O)Nc4nnc(C5CC5)s4)cc3C)c2cc1OC [Ex. 69, N-(5-Cyclopropyl-1,3,4-thiadiazol-2-yl)-N′-{4-[(6,7-dimethoxy-4-quinolyl)oxy]-2,5-dimethylphenyl}-urea] | 23.3% |  | 4.1 nM |  |
